Laboratory results as given in the NIST ThermoML archive (doi:10.1016/j.jct.2016.05.019).
“And” between values parts separate entries of the source, which are not always exact repeats. Equal entries are not always repeated. ± gives the expanded uncertainty stated by the source.

Conditions: Liquid; for mass density: Bellows volumetry

For `CCC(C)C` [2-methylbutane], the mass density (280 K, 1000 kPa) was 633.54 ± 0.7 kg/m3, the mass density (280 K, 2000 kPa) was 634.7 ± 0.7 kg/m3 and the mass density (280 K, 3000 kPa) was 635.86 ± 0.7 kg/m3. It also gave a mass density (280 K, 5000 kPa) of 638.02 ± 0.7 kg/m3, a mass density (280 K, 10000 kPa) of 643.42 ± 0.71 kg/m3 and a mass density (280 K, 20000 kPa) of 653.11 ± 0.72 kg/m3. For the same compound, the mass density (280 K, 30000 kPa) was 661.46 ± 0.73 kg/m3, the mass density (280 K, 40000 kPa) was 669.03 ± 0.74 kg/m3 and the mass density (280 K, 50000 kPa) was 675.94 ± 0.74 kg/m3. For the same compound, the mass density (280 K, 60000 kPa) was 682.44 ± 0.75 kg/m3, the mass density (280 K, 70000 kPa) was 688.43 ± 0.76 kg/m3 and the mass density (280 K, 80000 kPa) was 694.03 ± 0.76 kg/m3. For the same compound, the mass density (280 K, 90000 kPa) was 699.3 ± 0.77 kg/m3, the mass density (280 K, 100000 kPa) was 704.35 ± 0.77 kg/m3 and the mass density (280 K, 120000 kPa) was 713.77 ± 1 kg/m3. It also gave a mass density (280 K, 140000 kPa) of 722.2 ± 1 kg/m3, a mass density (280 K, 160000 kPa) of 729.89 ± 1 kg/m3 and a mass density (280 K, 180000 kPa) of 737.33 ± 1 kg/m3. For the same compound, the mass density (280 K, 200000 kPa) was 744.07 ± 1 kg/m3, the mass density (298.14 K, 10200 kPa) was 627.35 ± 0.69 kg/m3 and the mass density (298.14 K, 40600 kPa) was 656.53 ± 0.72 kg/m3. The mass density (298.14 K, 101400 kPa) was 694.83 ± 0.76 kg/m3, the mass density (298.14 K, 177400 kPa) was 727.57 ± 0.8 kg/m3 and the mass density (300 K, 1000 kPa) was 613.77 ± 0.68 kg/m3. The mass density (300 K, 2000 kPa) was 615.18 ± 0.68 kg/m3, the mass density (300 K, 3000 kPa) was 616.54 ± 0.68 kg/m3 and the mass density (300 K, 5000 kPa) was 619.26 ± 0.68 kg/m3. It also gave a mass density (300 K, 10000 kPa) of 625.53 ± 0.69 kg/m3, a mass density (300 K, 20000 kPa) of 636.61 ± 0.7 kg/m3 and a mass density (300 K, 30000 kPa) of 646.19 ± 0.71 kg/m3. For the same compound, the mass density (300 K, 40000 kPa) was 654.71 ± 0.72 kg/m3, the mass density (300 K, 50000 kPa) was 662.36 ± 0.73 kg/m3 and the mass density (300 K, 60000 kPa) was 669.45 ± 0.74 kg/m3. It also gave a mass density (300 K, 70000 kPa) of 675.91 ± 0.74 kg/m3, a mass density (300 K, 80000 kPa) of 682.03 ± 0.75 kg/m3 and a mass density (300 K, 90000 kPa) of 687.64 ± 0.76 kg/m3. The mass density (300 K, 100000 kPa) was 692.98 ± 0.76 kg/m3, the mass density (300 K, 120000 kPa) was 702.76 ± 0.77 kg/m3 and the mass density (300 K, 140000 kPa) was 711.75 ± 0.78 kg/m3. The mass density (300 K, 160000 kPa) was 719.81 ± 0.79 kg/m3, the mass density (300 K, 180000 kPa) was 727.5 ± 0.8 kg/m3 and the mass density (300 K, 200000 kPa) was 734.71 ± 0.81 kg/m3. The mass density (320 K, 199 kPa) was 592.04 ± 0.65 kg/m3, the mass density (320 K, 210 kPa) was 592.07 ± 0.65 kg/m3 and the mass density (320 K, 315 kPa) was 592.25 ± 0.65 kg/m3. For the same compound, the mass density (320 K, 502 kPa) was 592.61 ± 0.65 kg/m3, the mass density (320 K, 1000 kPa) was 593.5 ± 0.65 kg/m3 and 592.72 ± 0.65 kg/m3 and the mass density (320 K, 2000 kPa) was 595.25 ± 0.65 kg/m3 and 594.35 ± 0.65 kg/m3. It also gave a mass density (320 K, 3000 kPa) of 596.07 ± 0.66 kg/m3, a mass density (320 K, 5000 kPa) of 599.33 ± 0.66 kg/m3 and a mass density (320 K, 10000 kPa) of 606.77 ± 0.67 kg/m3. The mass density (320 K, 20000 kPa) was 619.58 ± 0.68 kg/m3, the mass density (320 K, 30000 kPa) was 630.46 ± 0.69 kg/m3 and the mass density (320 K, 40000 kPa) was 639.89 ± 0.7 kg/m3. It also gave a mass density (320 K, 50000 kPa) of 648.39 ± 0.71 kg/m3, a mass density (320 K, 60000 kPa) of 656.03 ± 0.72 kg/m3 and a mass density (320 K, 70000 kPa) of 662.98 ± 0.73 kg/m3. For the same compound, the mass density (320 K, 80000 kPa) was 669.62 ± 0.74 kg/m3, the mass density (320 K, 90000 kPa) was 675.83 ± 0.74 kg/m3 and the mass density (320 K, 100000 kPa) was 681.48 ± 0.75 kg/m3. It also gave a mass density (320 K, 120000 kPa) of 691.83 ± 0.76 kg/m3, a mass density (320 K, 140000 kPa) of 701.5 ± 0.77 kg/m3 and a mass density (320 K, 160000 kPa) of 710.26 ± 0.78 kg/m3. The mass density (320 K, 180000 kPa) was 718.37 ± 0.79 kg/m3, the mass density (320 K, 200000 kPa) was 725.65 ± 0.8 kg/m3 and the mass density (323.13 K, 49030 kPa) was 645.8 ± 0.71 kg/m3. For the same compound, the mass density (323.13 K, 98070 kPa) was 678.79 ± 0.75 kg/m3, the mass density (323.13 K, 147100 kPa) was 703.2 ± 0.77 kg/m3 and the mass density (323.13 K, 196130 kPa) was 722.79 ± 0.8 kg/m3. The mass density (340 K, 338 kPa) was 569.61 ± 0.63 kg/m3, the mass density (340 K, 420 kPa) was 569.78 ± 0.63 kg/m3 and the mass density (340 K, 513 kPa) was 570.01 ± 0.63 kg/m3. The mass density (340 K, 1000 kPa) was 571.14 ± 0.63 kg/m3 and 570.66 ± 0.63 kg/m3, the mass density (340 K, 2000 kPa) was 572.85 ± 0.63 kg/m3 and the mass density (340 K, 3000 kPa) was 574.98 ± 0.63 kg/m3. For the same compound, the mass density (340 K, 5000 kPa) was 578.97 ± 0.64 kg/m3, the mass density (340 K, 10000 kPa) was 587.99 ± 0.65 kg/m3 and the mass density (340 K, 20000 kPa) was 602.92 ± 0.66 kg/m3. It also gave a mass density (340 K, 30000 kPa) of 615.28 ± 0.68 kg/m3, a mass density (340 K, 40000 kPa) of 625.82 ± 0.69 kg/m3 and a mass density (340 K, 50000 kPa) of 635.12 ± 0.7 kg/m3. For the same compound, the mass density (340 K, 60000 kPa) was 643.45 ± 0.71 kg/m3, the mass density (340 K, 70000 kPa) was 651.03 ± 0.72 kg/m3 and the mass density (340 K, 80000 kPa) was 658.05 ± 0.72 kg/m3. For the same compound, the mass density (340 K, 90000 kPa) was 664.53 ± 0.73 kg/m3, the mass density (340 K, 100000 kPa) was 670.52 ± 0.74 kg/m3 and the mass density (340 K, 120000 kPa) was 681.53 ± 0.75 kg/m3. It also gave a mass density (340 K, 140000 kPa) of 691.52 ± 0.76 kg/m3, a mass density (340 K, 160000 kPa) of 700.49 ± 0.77 kg/m3 and a mass density (340 K, 180000 kPa) of 708.89 ± 0.78 kg/m3. For the same compound, the mass density (340 K, 200000 kPa) was 716.61 ± 0.79 kg/m3, the “vapor or sublimation pressure” value (340 K) was 328 ± 3 kPa and the mass density (340 K) was 569.21 ± 0.63 kg/m3. For the same compound, the mass density (360 K, 550 kPa) was 544.65 ± 0.6 kg/m3, the mass density (360 K, 608 kPa) was 544.68 ± 0.6 kg/m3 and the mass density (360 K, 609 kPa) was 544.84 ± 0.6 kg/m3. The mass density (360 K, 702 kPa) was 545.09 ± 0.6 kg/m3, the mass density (360 K, 1000 kPa) was 545.87 ± 0.6 kg/m3 and 545.89 ± 0.6 kg/m3 and the mass density (360 K, 2000 kPa) was 548.79 ± 0.6 kg/m3. The mass density (360 K, 3000 kPa) was 551.5 ± 0.61 kg/m3, the mass density (360 K, 5000 kPa) was 556.57 ± 0.61 kg/m3 and the mass density (360 K, 10000 kPa) was 567.71 ± 0.62 kg/m3. For the same compound, the mass density (360 K, 20000 kPa) was 585.18 ± 0.64 kg/m3, the mass density (360 K, 30000 kPa) was 599.16 ± 0.66 kg/m3 and the mass density (360 K, 40000 kPa) was 610.91 ± 0.67 kg/m3. For the same compound, the mass density (360 K, 50000 kPa) was 621.15 ± 0.68 kg/m3 and the mass density (360 K, 60000 kPa) was 630.27 ± 0.69 kg/m3.
